Columns and labels:
EGFR (mouse) [1] = biological target: EGFR (mouse) (UniProt P00533); settings: balb/c 3t3
EGFR (mouse) [2] = biological target: EGFR (mouse) (UniProt P00533); settings: balb/mk
EGFR = EGFR (UniProt P00533)
Sequence of EGFR (P00533 whole entry, looked up): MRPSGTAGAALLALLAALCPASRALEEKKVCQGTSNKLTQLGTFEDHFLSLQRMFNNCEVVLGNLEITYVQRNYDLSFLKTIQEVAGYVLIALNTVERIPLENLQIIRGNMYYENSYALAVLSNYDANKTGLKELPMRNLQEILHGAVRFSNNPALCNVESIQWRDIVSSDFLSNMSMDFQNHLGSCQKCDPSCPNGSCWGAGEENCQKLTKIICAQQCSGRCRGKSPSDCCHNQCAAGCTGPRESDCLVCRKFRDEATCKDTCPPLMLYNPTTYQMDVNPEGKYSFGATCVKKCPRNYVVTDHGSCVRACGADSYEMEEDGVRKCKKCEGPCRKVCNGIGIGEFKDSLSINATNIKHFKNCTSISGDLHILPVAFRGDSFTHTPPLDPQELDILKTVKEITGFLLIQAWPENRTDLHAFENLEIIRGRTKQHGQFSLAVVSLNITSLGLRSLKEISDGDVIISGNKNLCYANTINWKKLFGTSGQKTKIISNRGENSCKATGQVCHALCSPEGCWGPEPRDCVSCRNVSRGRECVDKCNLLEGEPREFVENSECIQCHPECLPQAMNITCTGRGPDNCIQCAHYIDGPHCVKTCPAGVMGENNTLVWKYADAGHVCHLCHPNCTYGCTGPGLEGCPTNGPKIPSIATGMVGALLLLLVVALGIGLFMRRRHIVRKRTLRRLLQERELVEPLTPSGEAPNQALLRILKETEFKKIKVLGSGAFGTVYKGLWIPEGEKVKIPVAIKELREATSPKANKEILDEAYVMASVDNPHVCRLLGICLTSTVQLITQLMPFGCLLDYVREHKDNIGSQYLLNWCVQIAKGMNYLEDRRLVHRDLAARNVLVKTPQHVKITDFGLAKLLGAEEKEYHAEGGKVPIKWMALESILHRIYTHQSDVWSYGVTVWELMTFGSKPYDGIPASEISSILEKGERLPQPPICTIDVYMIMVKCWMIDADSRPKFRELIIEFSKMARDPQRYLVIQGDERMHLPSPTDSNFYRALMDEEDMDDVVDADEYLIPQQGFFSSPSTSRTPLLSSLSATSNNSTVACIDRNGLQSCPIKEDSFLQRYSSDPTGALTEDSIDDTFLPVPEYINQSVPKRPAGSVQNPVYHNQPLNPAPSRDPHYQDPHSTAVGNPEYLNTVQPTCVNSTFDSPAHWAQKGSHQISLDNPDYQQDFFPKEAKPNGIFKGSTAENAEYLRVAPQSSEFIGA

Row | SMILES | IC50 (EGFR (mouse) [1]) | IC50 (EGFR (mouse) [2]) | IC50 (EGFR)
1 | COc1ccc(-c2n[nH]c3ncnc(Nc4cccc(Cl)c4)c23)cc1 | > 10 µM | – | –
2 | Oc1cccc(Nc2n[nH]c3ncnc(Nc4cccc(Cl)c4)c23)c1 | > 10 µM | – | –
3 | Nc1ncnc2c1c(-c1ccccc1)nn2-c1ccccc1 | > 10 µM | > 50 µM | –
4 | Cc1c(C)n(C)c2ncnc(Nc3cccc(Cl)c3)c12 | – | – | 0.45 µM
5 | Clc1cccc(Nc2n[nH]c3ncnc(NCc4ccccc4)c23)c1 | > 10 µM | – | –
6 | Nc1cccc(-c2n[nH]c3ncnc(Nc4cccc(Cl)c4)c23)c1 | > 10 µM | – | –
7 | COc1cccc(CNc2n[nH]c3ncnc(Nc4cccc(Cl)c4)c23)c1 | > 10 µM | – | –
8 | Oc1cccc(-c2n[nH]c3ncnc(Nc4cccc(Cl)c4)c23)c1 | > 10 µM | – | –
9 | O=[N+]([O-])c1cccc(-c2n[nH]c3ncnc(Nc4cccc(Cl)c4)c23)c1 | > 10 µM | > 50 µM | –
10 | Clc1cccc(Nc2n[nH]c3ncnc(Nc4ccccc4)c23)c1 | > 10 µM | – | –
11 | Clc1cccc(Nc2n[nH]c3ncnc(Oc4cccc(Cl)c4)c23)c1 | 10 µM | > 50 µM | –
12 | Clc1cccc(Nc2ncnc3[nH]nc(-c4ccccc4)c23)c1 | > 10 µM | – | –
13 | Oc1ccc(-c2n[nH]c3ncnc(Nc4cccc(Cl)c4)c23)cc1 | > 10 µM | – | –
14 | COc1cccc(Nc2n[nH]c3ncnc(Nc4cccc(Cl)c4)c23)c1 | > 10 µM | – | –
15 | Nc1nc(N)c2c(Nc3cccc(Cl)c3)n[nH]c2n1 | > 10 µM | – | –
16 | c1ccc(Nc2ncnc3[nH]nc(Nc4ccccc4)c23)cc1 | > 10 µM | – | –
17 | Nc1ccc(-c2n[nH]c3ncnc(Nc4cccc(Cl)c4)c23)cc1 | > 10 µM | – | –
18 | CC(C)(C)OC(=O)Nc1ccc(-c2n[nH]c3ncnc(Nc4cccc(Cl)c4)c23)cc1 | > 10 µM | – | –
19 | Clc1cccc(CNc2n[nH]c3ncnc(Nc4cccc(Cl)c4)c23)c1 | > 10 µM | – | –
20 | Clc1cccc(Nc2n[nH]c3ncnc(Nc4cccc(Br)c4)c23)c1 | > 10 µM | – | –
21 | Oc1ccc(Nc2n[nH]c3ncnc(Nc4cccc(Cl)c4)c23)cc1 | > 10 µM | – | –
22 | COc1ccc(CNc2n[nH]c3ncnc(Nc4cccc(Cl)c4)c23)cc1 | > 10 µM | – | –
23 | Nc1ncnc2[nH]nc(Nc3cccc(Cl)c3)c12 | > 10 µM | – | –
24 | Cc1cccc(Nc2ncnc3[nH]nc(Nc4cccc(Cl)c4)c23)c1 | > 10 µM | – | –
25 | Clc1cccc(Nc2ncnc3[nH]nc(NCc4ccccc4)c23)c1 | > 10 µM | – | –

— the Kinase Knowledgebase extract (Sharma et al. 2016)
